Assays:
cadherin-26 (CDH26) = assay: Cadherin-26 expression in FP-treated EE patients, real-time PCR; format: in vivo, human; settings: P<0.05
From the text: (§1) (rev) […]; IL-13R2 (396 bp): (fwd): […] (rev) […]; IL-4Rα (335 bp): (fwd): […]
Wood, N. et al., (2003) J. Exp. Med. 197: 703-709. In patients with EE with successful anti-inflammatory intervention, IL-13 overexperssion can be normalized. […] Similarly, eotaxin-3 mRNA was normalized in FP-responder patients (P<0.01; FIG. 6B). The research next aimed to determine whether the EE transcriptome was also reversible in patients with EE successfully treated with glucocorticoids. Remarkably, 98% of the EE transcriptome was reversed to expression levels detected in biopsy specimens of healthy patients (FIG. 6C). The reversible genes include cell-specific transcripts, including eosinophil, mast cell, lymphocyte, fibroblast, and epithelial genes. In addition, genes involved in cellular recruitment and cell proliferation were also reversible. Although the biopsy specimens had no abnormal microscopic features, 12 genes were still dysregulated (FIG. 6B).

IL-13 mRNA = IL-13 mRNA in esophageal biopsy specimens of FP-treated EE patients, real-time PCR; format: in vivo, human; settings: patients with EE treated successfully with FP
Experimental: (§2) For each patient, one distal esophageal mucosal biopsy sample was immersed in RNA, later RNA stabilization reagent (Qiagen) and stored at 4 C. for <15 days. Total RNA was extracted using the RNAeasy Mini Kit (Qiagen) according to the manufacturer's recommendations. Hybridization to DNA microarray was performed by the MicroarrayCore at Cincinnati Children's Hospital Medical Center, as previously reported Blanchard, C. et al., (2006) J. Clin. Invest. 116: 536-547. The genome wide human Affymetrix U133A plus 2.0 Genechip® was used, and gene transcript levels were determined using algorithms in the Microarray Analysis Suite and GeneSpring software (Silicon Genetics) as previously described Blanchard, C. et al., (2006) J. Clin. Invest. 116: 536-547. […] Response to therapy was defined as <1 eosinophils/high power field (hpf) and no epithelial cell hyperplasia as described herein.
as §1
(§3) Wood, N. et al., (2003) J. Exp. Med. 197: 703-709. In patients with EE with successful anti-inflammatory intervention, IL-13 overexperssion can be normalized. […] Similarly, eotaxin-3 mRNA was normalized in FP-responder patients (P<0.01; FIG. 6B). […] Remarkably, 98% of the EE transcriptome was reversed to expression levels detected in biopsy specimens of healthy patients (FIG. 6C). […]

patients with EE = settings: in vivo; cited from earlier work
EE transcriptome = assay: Microarray analysis of the EE transcriptome in successfully treated EE patients; format: in vivo, human
Experimental: as §2, with “herein. […] Wood, N. et al., (2003) J. Exp. Med. 197: 703-709. In patients with EE with successful anti-inflammatory intervention, IL-13 overexperssion can be normalized. […] Similarly, eotaxin-3 mRNA was normalized in FP-responder patients (P<0.01; FIG. 6B). […] Remarkably, 98% of the EE transcriptome was reversed to expression levels detected in biopsy specimens of healthy patients (FIG. 6C). […]” for “herein.”

eotaxin-3 mRNA = assay: Eotaxin-3 mRNA in esophageal biopsy specimens of FP-treated EE patients, real-time PCR; format: in vivo, human; settings: P<0.01
Experimental: as §2, §1, §3

CCC(=O)O[C@]1(C(=O)SCF)[C@H](C)C[C@H]2[C@@H]3C[C@H](F)C4=CC(=O)C=C[C@]4(C)[C@@]3(F)[C@@H](O)C[C@@]21C [FP, S-fluoromethyl-6α,9-difluoro-11β-hydroxy-16α-methyl-3-oxo androsta-1,4-diene-17β-carbothioate, 17-propionate]
cadherin-26 expression in FP-treated patients with EE (cadherin-26 (CDH26)): residual upregulation
IL-13 mRNA levels in EE responders compared with untreated specimens (IL-13 mRNA): significantly (P<0.01) reduced
EE disease remission compared with placebo treatment (patients with EE): induces EE disease remission
EE transcriptome reversed to expression levels of healthy patients (EE transcriptome; patients with EE successfully treated with glucocorticoids): 98%
genes still dysregulated after treatment (EE transcriptome; successfully treated EE patients, fold change filter 2): 12 genes
eotaxin-3 mRNA in FP-responder patients (eotaxin-3 mRNA): normalized
